Experimental data taken from publication PMC3813752 (PLoS ONE, 2013).
Like-named read-outs stand apart in the source and are kept apart here.

Tests used:
human GPR18 [1] = molecular target: T1, human GPR18 (Homo sapiens, UniProt Q14330); details: test compound 10 µM, related to effect of Δ9-THC 10 µM = 100%
T1 sequence (Q14330 1-331): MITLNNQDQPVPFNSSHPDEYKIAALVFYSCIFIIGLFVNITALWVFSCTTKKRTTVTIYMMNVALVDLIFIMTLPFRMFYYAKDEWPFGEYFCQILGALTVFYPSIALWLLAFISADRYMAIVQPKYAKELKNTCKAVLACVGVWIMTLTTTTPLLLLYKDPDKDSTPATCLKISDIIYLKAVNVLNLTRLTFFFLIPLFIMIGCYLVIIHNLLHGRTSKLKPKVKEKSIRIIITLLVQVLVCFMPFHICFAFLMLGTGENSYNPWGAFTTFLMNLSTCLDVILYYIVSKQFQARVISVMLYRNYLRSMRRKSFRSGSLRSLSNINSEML

human GPR18 [2] = molecular target: T1, human GPR18; test: cell-based; details: for inhibition at 10 µM: CHO, read-out: % inhibition of Δ9-THC (10 µM)-induced β-arrestin recruitment at GPR18, test compound at 10 µM; for IC50: GPR18 IC50, β-arrestin recruitment, antagonist mode vs. Δ9-THC (10 µM)
human GPR55 = human GPR55 (Homo sapiens, UniProt Q9Y2T6); test: β-arrestin recruitment assay (PathHunter), CHO cells expressing GPR55; details: for inhibition at 10 µM: CHO; for IC50: GPR55 IC50, β-arrestin recruitment, antagonist mode vs. LPI (1 µM); for agonist effect on β-arrestin recruitment at GPR55: test compound 10 µM, related to effect of LPI 1 µM = 100%
human CB2 receptor = human CB2 receptor (Homo sapiens, UniProt P34972); test: Radioligand binding (heterologous competition) vs. [3H]CP55,940 at CB2; details: for inhibition at 10 µM: read-out: % inhibition of radioligand binding at CB2
human CB1 receptor = human CB1 receptor (Homo sapiens, UniProt P21554); test: biochemical; assay type: binding; details: for inhibition at 10 µM: vs. [3H]CP55,940, read-out: % inhibition of radioligand binding at CB1; for Ki: membranes of CHO cells expressing human CB1, three independent experiments in duplicates, read-out: Ki CB1, heterologous competition vs. [3H]CP55,940
[3] = Ki CB2, heterologous competition vs. [3H]CP55,940, membranes of CHO cells expressing human CB2, three independent experiments in duplicates
[4] = membranes of CHO cells expressing human CB2, three independent experiments in duplicates, read-out: Ki CB2, heterologous competition vs. [3H]CP55,940
[5] = read-out: % inhibition of LPI (1 µM)-induced β-arrestin recruitment at GPR55, test compound at 10 µM

Chain of human CB1 receptor (P21554 whole entry): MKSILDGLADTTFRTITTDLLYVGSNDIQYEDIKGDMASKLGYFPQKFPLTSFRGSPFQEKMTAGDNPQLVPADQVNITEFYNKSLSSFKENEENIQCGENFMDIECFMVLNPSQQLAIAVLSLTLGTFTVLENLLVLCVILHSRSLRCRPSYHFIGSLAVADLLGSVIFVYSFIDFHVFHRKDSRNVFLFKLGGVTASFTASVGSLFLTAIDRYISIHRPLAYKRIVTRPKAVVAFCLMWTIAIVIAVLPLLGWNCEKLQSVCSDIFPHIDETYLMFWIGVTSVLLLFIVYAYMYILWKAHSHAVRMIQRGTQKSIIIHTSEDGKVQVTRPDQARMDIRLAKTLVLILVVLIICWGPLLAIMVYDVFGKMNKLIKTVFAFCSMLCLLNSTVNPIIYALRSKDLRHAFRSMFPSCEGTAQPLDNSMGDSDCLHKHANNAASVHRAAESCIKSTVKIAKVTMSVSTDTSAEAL
Chain of human GPR55 (Q9Y2T6 whole entry): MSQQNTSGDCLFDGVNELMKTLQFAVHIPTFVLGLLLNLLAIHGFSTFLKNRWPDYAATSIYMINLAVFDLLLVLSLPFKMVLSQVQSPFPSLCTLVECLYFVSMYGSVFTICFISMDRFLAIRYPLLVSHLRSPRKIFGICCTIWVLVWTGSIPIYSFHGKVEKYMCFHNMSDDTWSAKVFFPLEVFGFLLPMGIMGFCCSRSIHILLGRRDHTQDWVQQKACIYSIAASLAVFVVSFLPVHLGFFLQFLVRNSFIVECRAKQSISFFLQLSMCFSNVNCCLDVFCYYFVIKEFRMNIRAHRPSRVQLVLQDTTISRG
Chain of human CB2 receptor (P34972 whole entry): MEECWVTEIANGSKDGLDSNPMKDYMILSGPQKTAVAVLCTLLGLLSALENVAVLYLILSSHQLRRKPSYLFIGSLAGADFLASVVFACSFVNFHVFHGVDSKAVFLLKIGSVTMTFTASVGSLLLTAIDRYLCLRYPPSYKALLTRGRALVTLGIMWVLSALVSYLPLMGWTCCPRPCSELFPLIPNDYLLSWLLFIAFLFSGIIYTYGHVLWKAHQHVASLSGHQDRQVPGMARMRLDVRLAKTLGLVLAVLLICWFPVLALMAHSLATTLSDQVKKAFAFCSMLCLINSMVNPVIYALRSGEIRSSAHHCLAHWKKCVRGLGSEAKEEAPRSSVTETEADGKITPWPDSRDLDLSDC

SMILES	agonist effect on β-arrestin recruitment at GPR18 (human GPR18 [1]) [%]	EC50 (human GPR18 [2]) [µM]	inhibition at 10 µM (human GPR18 [2]) [%]	IC50 (human GPR18 [2]) [µM]	EC50 (human GPR55) [µM]	inhibition at 10 µM (human GPR55; read-out: % inhibition of LPI (1 µM)-induced β-arrestin recruitment at GPR55) [%]	IC50 (human GPR55) [µM]	agonist effect on β-arrestin recruitment at GPR55 (human GPR55) [%]	Ki (human CB2 receptor; [3]) [nM]	inhibition at 10 µM (human CB2 receptor) [%]	inhibition at 10 µM (human CB1 receptor) [%]	Ki (human CB1 receptor) [nM]	inhibition at 10 µM (human CB2 receptor; at 10 µM, vs. [3H]CP55,940) [%]	Ki (human CB2 receptor; [4]) [nM]	inhibition at 10 µM (human GPR55; [5]) [%]	Ki (human CB2 receptor; vs. [3H]CP55,940, read-out: Ki CB2) [nM]	selectivity for CB2 receptors over CB1 (human CB2 receptor; from Ki values) [fold]
C=CCc1ccc(O)c(-c2ccc(O)c(CC=C)c2)c1 [Compound 10, honokiol, reference compound]	0	> 10	45	~10	> 10	42	~10	27									
Oc1ccccc1-c1ccccc1O [Compound 40, 2-(2-hydroxyphenyl)phenol]									> 1000	0	11	> 1000					
Cc1ccc(O)c(-c2cc(C)ccc2O)c1 [Compound 41]	20	> 10	0	> 10	> 10		> 10	30	> 10		23	> 1000	30	> 1000	0		
CCc1ccc(O)c(-c2cc(CC)ccc2O)c1 [Compound 42]	6	> 10	12	> 10	> 10		> 10	23				2130 ± 840		2870 ± 770	0		
CCCCCCc1ccc(O)c(-c2cc(CCCCCC)ccc2O)c1 [Compound 45]	0	> 10	127	11.7 ± 2.8	> 10		> 10	0				4640 ± 580		1830 ± 190	0		
CCCc1ccc(O)c(-c2ccccc2O)c1 [Compound 46]	0	> 10	0	> 10	> 10		> 10	25			45		49		37	~10000	
CCCCc1ccc(O)c(-c2ccccc2O)c1 [Compound 47]	0	> 10	24	> 10	> 10		> 10	2			40	~1000		2030 ± 880	35		
CCCCCc1ccc(O)c(-c2ccccc2O)c1 [Compound 48]	0	> 10	18	> 10	~10		> 10	42				6590 ± 2560		1160 ± 290	25		
CCCCCCc1ccc(O)c(-c2ccccc2O)c1 [Compound 49]	0	> 10	48	~10	> 10		> 10	39				6630 ± 5030		1500 ± 640	34		
CCCc1ccc(O)c(-c2cc(C)ccc2O)c1 [Compound 50]	0	> 10	21	> 10	> 10		> 10	26	7380 ± 2760		20	> 1000			4		
CCCCc1ccc(O)c(-c2cc(C)ccc2O)c1 [Compound 51]	0	> 10	44	~10	> 10		> 10	18			44	~1000		1690 ± 530	0		
CCCCCc1ccc(O)c(-c2cc(C)ccc2O)c1 [Compound 52]	0	> 10	45	~10	> 10		> 10	9				1230 ± 470		517 ± 101	0		
CCCCCCc1ccc(O)c(-c2cc(C)ccc2O)c1 [Compound 53]	0	> 10	118	11.5 ± 1.3	> 10		> 10	28				822 ± 224		273 ± 96	0		
CCCc1ccc(O)c(-c2cc(CC)ccc2O)c1 [Compound 54]	0	> 10	67	10.5 ± 0.9	> 10		> 10	0			43	~1000		856 ± 367	19		
CCCCc1ccc(O)c(-c2cc(CC)ccc2O)c1 [Compound 55]	0	> 10	40	~10	> 10		> 10	2				5760 ± 2850		235 ± 101	18		~25
CCCCCc1ccc(O)c(-c2cc(CC)ccc2O)c1 [Compound 56]	0	> 10	95	13.6 ± 0.7	> 10		> 10	3				634 ± 297		161 ± 33	2		
